Where “and” joins values, the source holds several entries; their conditions need not be identical. Equal values may be shown once. Read-outs that look alike come from different tables or passages of the source.
Experiments:
[1] = cynomolgus monkey, in vivo, 1 mg/kg
Sprague Dawley rats = test: rat body weight, daily subcutaneous injections; assay type: in vivo
Description: The rats were weighed everyday (prior to dosing on dosing days). Animals had full access to food and water at all times.
By day five, the animals treated with 100 nmole/kg doses lost an average of 75 grams (17%) body weight compared to controls, and the weight loss is related to a drop in food and water intake. Because of the dramatic and acute weight loss observed, daily administration of the drug was stopped at day five. After the 5 day administration period, all animals gained weight at a similar rate.

rat GLP-1 receptor = target: T1, rat GLP-1 receptor (Rattus norvegicus, UniProt P32301); test: cAMP potency assay in CHO cells transfected with the rat GLP-1 receptor (CHO-GLP-1R); assay type: cell-based
T1 construct: expressed in transfected cells; host or cells: CHO (CHO-GLP-1R)
T1 sequence (P32301 22-463): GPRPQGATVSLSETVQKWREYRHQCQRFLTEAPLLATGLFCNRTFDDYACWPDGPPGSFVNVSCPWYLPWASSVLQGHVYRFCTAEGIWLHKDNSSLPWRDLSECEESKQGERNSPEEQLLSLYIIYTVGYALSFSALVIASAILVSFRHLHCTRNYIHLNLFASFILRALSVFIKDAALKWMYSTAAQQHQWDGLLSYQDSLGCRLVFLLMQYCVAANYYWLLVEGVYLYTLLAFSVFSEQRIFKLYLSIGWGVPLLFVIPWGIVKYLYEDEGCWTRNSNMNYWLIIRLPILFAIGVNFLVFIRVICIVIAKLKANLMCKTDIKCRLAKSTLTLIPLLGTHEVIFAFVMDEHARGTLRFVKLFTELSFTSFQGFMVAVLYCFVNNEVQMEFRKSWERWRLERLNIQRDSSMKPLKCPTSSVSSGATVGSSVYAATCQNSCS
Experimental: 96-well tissue culture plates were seeded with CHO-GLP-1R cells and cultured overnight. The following day, the cells were rinsed with Krebs-Ringer buffer (KRB) and incubated in KRB containing the phosphodiesterase inhibitor 3-isobutyl-1-methylxanthine (IBMX, 2 mM) to inhibit intracellular enzymes that process cAMP. Serial dilutions of test compounds and controls were prepared in KRB/IBMX and triplicate wells of cells were inoculated with samples and controls. After incubation, individual sample lysates were then assayed to measure the increase in intracellular cAMP levels using a competition-based fluorescent immunoassay (CatchPoint® cAMP Fluorescent Assay Kit, Molecular Devices Corp., Sunnyvale, Calif.).

Diabetic (db/db) mice = test: blood glucose in diabetic (db/db) mice after subcutaneous injection; assay type: in vivo
[2] = target: T2, matrix metalloprotease I (MMP-1, collagenase) (Homo sapiens, UniProt P03956); assay type: in vitro ADME
T2 sequence (P03956 100-469): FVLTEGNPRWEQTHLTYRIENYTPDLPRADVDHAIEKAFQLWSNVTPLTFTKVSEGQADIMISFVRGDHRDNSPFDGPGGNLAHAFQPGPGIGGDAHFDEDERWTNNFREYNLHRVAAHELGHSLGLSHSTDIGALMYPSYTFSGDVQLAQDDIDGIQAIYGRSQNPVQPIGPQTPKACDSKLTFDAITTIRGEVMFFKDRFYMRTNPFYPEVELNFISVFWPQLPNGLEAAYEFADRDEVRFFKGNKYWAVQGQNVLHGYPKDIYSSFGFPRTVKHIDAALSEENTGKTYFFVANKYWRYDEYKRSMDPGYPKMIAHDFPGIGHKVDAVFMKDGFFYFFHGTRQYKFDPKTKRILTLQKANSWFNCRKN
Description: This difference in degradation occurs despite the close similarity in amino acid sequence in the active portion of the molecules.

[3] = effect of aerosolization on integrity and activity of the fusion protein; assay type: physicochemical
Description: (§1) Aerosols were generated with an Aerotech II compressed air jet nebulizer (CIS-US Inc., Bedford, Mass.) and directed through a 1.58 cm diameter stainless steel aerosol delivery line into a 24-port flow past rodent exposure system (IN-TOX, ABQ, NM). The exhaust flow rate out of the chamber was ˜11.5 L/min. The nebulizer pressure was maintained at ˜30 psi.

[4] = mouse, in vivo, inhaled or intranasal
Experimental: The inhalation time in the chamber was chosen so that the animals would receive an exposure equivalent to the 0.3, 1 and 3 mg/kg dose administered subcutaneously. As a control, these doses were administered subcutaneously (SC) to compare in vivo activity to the inhaled route of administration.

human GLP-1 receptor = target: T3, human GLP-1 receptor (Homo sapiens, UniProt P43220); test: cell-based cAMP assay in CHO cells expressing the human GLP-1 receptor (FIG. 4)
T3 construct: expressed in transfected cells; host or cells: CHO

diabetic mice (db/db) = test: blood glucose in db/db mice after inhalation of aerosolized fusion protein; assay type: in vivo; conditions: inhalation exposure equivalent to 0.3, 1 and 3 mg/kg
Description: as §1

mice = test: body weight in mice after a single dose; assay type: in vivo; conditions: for average drop in body weight: twenty-four hours after administration
Description: Such a dose can also be administered once per two weeks or once per month.

T3 sequence (P43220 24-463): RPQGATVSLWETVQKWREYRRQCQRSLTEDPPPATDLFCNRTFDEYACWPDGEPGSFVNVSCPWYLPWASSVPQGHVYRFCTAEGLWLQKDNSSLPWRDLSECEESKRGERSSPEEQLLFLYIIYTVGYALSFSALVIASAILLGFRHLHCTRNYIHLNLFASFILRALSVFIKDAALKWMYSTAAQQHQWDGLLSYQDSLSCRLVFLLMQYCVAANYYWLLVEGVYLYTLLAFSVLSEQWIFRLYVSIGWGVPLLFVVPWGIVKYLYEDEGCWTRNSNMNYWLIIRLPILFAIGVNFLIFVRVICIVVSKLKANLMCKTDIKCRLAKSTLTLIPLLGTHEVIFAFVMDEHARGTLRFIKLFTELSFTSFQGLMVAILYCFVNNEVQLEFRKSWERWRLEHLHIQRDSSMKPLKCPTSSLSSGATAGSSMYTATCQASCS

exendin-4(1-39) (PEAPTD)2 (SEQ ID NO: 5) mTf fusion protein: exendin-4(1-39) (SEQ ID NO: 4) linked via linker (PEAPTD)2 to modified transferrin mTf (SEQ ID NO: 17); sequence SEQ ID NO: 23
Vz ([1]; iv): 0.0659 ± 0.031 L/kg | λ z ([1]; iv): 0.0313 ± 0.0137 h − 1 | F ([1]; sc): 49.0% | λ z ([1]; sc): 0.0252 ± 0.0084 h − 1 | body weight loss (Sprague Dawley rats; 100 nmole/kg daily administration, rats): 17% and 16% | average body weight loss compared to controls (Sprague Dawley rats; 100 nmole/kg daily, by day five): 75 grams | body weight change (Sprague Dawley rats; 10 and 100 nmole/kg doses): lost weight after the first injection | body weight versus control animals after end of dosing (Sprague Dawley rats; 20 days following the last administration): still weighed less than the control animals | EC50 (rat GLP-1 receptor; cAMP accumulation in CHO-GLP-1R cells): 0.16 nM | potency relative to the GLP-1(7-37,A8G,K34A) (PEAPTD)2 mTf fusion protein (rat GLP-1 receptor; in vitro activation of the GLP-1 receptor): four-eight fold more potent | time the almost normalized glucose level persisted (Diabetic (db/db) mice; all treatment groups): 24 h | dose that significantly reduced blood glucose (Diabetic (db/db) mice; by 3 hours after subcutaneous injection): ≤ 1.3 nmol/kg | effect on blood glucose compared with equivalent doses of the GLP-1(7-37,A8G,K34A) (PEAPTD)2 mTf fusion protein (Diabetic (db/db) mice; equivalent doses): significantly greater and of a longer duration | time at which glucose concentrations returned to pretreatment levels (Diabetic (db/db) mice; post-treatment, depending on the dose): 48 to 72 h | reduction in blood glucose (Diabetic (db/db) mice; reduction seen in db/db mice): approximately 70% | resistance to inactivation by MMP-1 [2]: resistant to inactivation by MMP-1 | effect of aerosolization on structure ([3]; 10 mg/mL in 10 mM histidine pH 7.4, 100 mM NaCl, nebulized, SDS-PAGE and SEC-HPLC): no detectable adverse effect on the structure | biological activity of material recovered after aerosolization ([3]; condensed liquid from the aerosol): biologically active | bioavailability [4]: approximately 10% | EC50 (human GLP-1 receptor; cell-based cAMP assay, FIG. 4): 0.0313 nM | potency relative to exendin-4 (fold less potent) (human GLP-1 receptor; in vitro, CHO cells expressing the human GLP-1 receptor): approximately 5 fold | blood glucose levels after inhalation (diabetic mice (db/db)): significant drop | dose correlated with a reduction in animal body weight (mice; mice and rats): ≥ 10 nmol/kg | average drop in body weight (mice; single dose 10 nmole/kg): 6% | average drop in body weight (mice; single dose 100 nmole/kg): 14%
